We go through two compounds from PMC5647257 (Bioorganic & medicinal chemistry letters, 2017).

Structures are written as SMILES.

The target in the test is HIV-1 protease (Human immunodeficiency virus type 1 group M subtype B, UniProt P04585). Kind of test: HIV-1 protease inhibitory potency, assay protocol of Toth and Marshall. Format: biochemical. Particulars: compared with 13-membered inhibitors 5i and 5j.

Take `COc1ccc2c(c1)COC/C=C/CCCCCN(C[C@@H](O)[C@H](Cc1ccccc1)NC(=O)O[C@H]1CO[C@H]3OCC[C@H]31)S2(=O)=O` [5l]: the “fold reduction of enzyme inhibitory activity over inhibitors 5i and 5j” value was “greater than 20 fold”.

Turning to `COc1ccc2c(c1)COC/C=C\CCCCCN(C[C@@H](O)[C@H](Cc1ccccc1)NC(=O)O[C@H]1CO[C@H]3OCC[C@H]31)S2(=O)=O` [5k], the “fold reduction of enzyme inhibitory activity over inhibitors 5i and 5j” value is reported as “greater than 20 fold”.
